Experimental data as given in paper PMC9596378, “Discovery and molecular basis of subtype-selective cyclophilin inhibitors” (Nature Chemical Biology, 2022).
Values joined by “and” are separate entries in the source; they are usually repeats but may differ in a detail not shown here. Identical values can stand only once. Like-named read-outs stand apart in the source and are kept apart here.

Key:
Assay in all cases: Chymotrypsin coupled prolyl-isomerase assay;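 for CypD prolyl-isomerase raw dose-response reading (Fig. 6c): observed rate constant per well from one-phase association fit in s−1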;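 for PPIL1 prolyl-isomerase raw dose-response reading (Fig. 6c): Per-well observed rate constant from one-phase association fit in s−1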;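 for PPWD1 prolyl-isomerase raw dose-response reading (Fig. 6c): Per-well observed rate constant from one-phase association fit in s−1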
CypD = CypD (Homo sapiens, UniProt P30405);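 for CypD prolyl-isomerase raw dose-response reading (Fig. 6c): observed rate constant per well from one-phase association fit in s−1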
PPIL1 = target: T1, PPIL1 (Homo sapiens, UniProt Q9Y3C6); assay type: biochemical;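 for PPIL1 prolyl-isomerase raw dose-response reading (Fig. 6c): Per-well observed rate constant from one-phase association fit in s−1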
T1 construct: PPIL1 (UniProtKB Entry Q9Y3C6: residues 1–166); made in house; host or cells: E. coli BL21(DE3)
T1 sequence (Q9Y3C6 1-166): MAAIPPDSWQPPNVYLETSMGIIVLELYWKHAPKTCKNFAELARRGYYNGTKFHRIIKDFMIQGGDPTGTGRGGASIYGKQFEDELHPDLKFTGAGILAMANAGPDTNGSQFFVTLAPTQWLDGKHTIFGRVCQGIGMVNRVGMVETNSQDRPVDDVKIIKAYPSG

PPWD1 = target: T2, PPWD1 (Homo sapiens, UniProt Q96BP3); assay type: biochemical;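 for PPWD1 prolyl-isomerase raw dose-response reading (Fig. 6c): Per-well observed rate constant from one-phase association fit in s−1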
T2 construct: PPWD1 (UniProtKB Entry Q96BP3: residues 473–646); host or cells: E. coli BL21(DE3)
T2 sequence (Q96BP3 473-646): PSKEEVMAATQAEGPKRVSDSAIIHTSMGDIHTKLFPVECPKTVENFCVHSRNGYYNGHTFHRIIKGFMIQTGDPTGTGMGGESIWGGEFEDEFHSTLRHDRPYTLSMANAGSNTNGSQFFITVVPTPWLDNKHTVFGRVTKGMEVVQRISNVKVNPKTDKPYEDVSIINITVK
Protocol: Five microliters of compound pre-dissolved in 5% DMSO/assay buffer was then added to appropriate wells and incubated at 2–3 °C for 5 min. Five microliters of 0.5 mM α-chymotrypsin from bovine pancreas (Type II, lyophilized powder, Millipore-Sigma) in 20% 1 mM HCl/Assay Buffer was then added to each well and incubated at 2–3 °C for 5 min. The plate was then quickly transferred to a FLIPR Tetra High-Throughput Cellular Screening System (Molecular Devices). Using the internal liquid handling system of the FLIPR, 1 µL 0.5 mM Suc-AAPF-AMC (Chymotrypsin Substrate II, Millipore-Sigma) dissolved in 0.55 M LiCl/2,2,2-trifluoroethanol was added to each well, which was then mixed for 5 s, followed by immediate fluorescence measurements every 1 s for 330 s using a 360–380 nm excitation LED module and a 400–460 nm emission filter. […] Raw fluorescence data was analyzed by non-linear regression analysis with Prism v.9 by fitting one-phase association curves to each well. Analyses were halted after the calculated maximum fluorescent value owing to observed fluorescent bleaching during the sustained fluorescent plateau. Rate constants calculated for each well (s^−1) were then normalized to substrate only (no prolyl-isomerase) and enzyme + substrate only controls.

Chain of CypD (P30405 45-207): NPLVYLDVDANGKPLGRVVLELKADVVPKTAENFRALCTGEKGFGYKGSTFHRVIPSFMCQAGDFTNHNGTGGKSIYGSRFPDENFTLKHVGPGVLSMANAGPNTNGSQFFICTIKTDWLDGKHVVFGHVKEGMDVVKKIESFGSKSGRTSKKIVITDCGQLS

NC(=O)C1CCNC(=O)C=CC(=O)N2CCCC(Cc3ccccc3)(C2)C(=O)NC(Cc2ccc(-c3ccc(C=O)c(B(O)O)c3)cc2)C(=O)NCc2ccccc2CC(=O)N1 (stereo not shown) [Compound C3A]
IC50 (CypD): 0.6 ± 0.1 µM | CypD prolyl-isomerase raw dose-response reading (Fig. 6c) (CypD; Dose 0.00114312 µM): 0.06909 and 0.06564 and 0.08467 | CypD prolyl-isomerase raw dose-response reading (Fig. 6c) (CypD; Dose 0.00342936 µM): 0.0763 and 0.06566 and 0.07012 | CypD prolyl-isomerase raw dose-response reading (Fig. 6c) (CypD; Dose 0.00457247 µM): 0.04911 and 0.0434 and 0.06663 and 0.05943 and 0.05791 and 0.04481 | CypD prolyl-isomerase raw dose-response reading (Fig. 6c) (CypD; Dose 0.0102881 µM): 0.06833 and 0.05597 and 0.06694 | CypD prolyl-isomerase raw dose-response reading (Fig. 6c) (CypD; Dose 0.0308642 µM): 0.07034 and 0.05622 and 0.06 | CypD prolyl-isomerase raw dose-response reading (Fig. 6c) (CypD; Dose 0.0411523 µM): 0.05515 and 0.05553 and 0.04718 and 0.06514 and 0.05753 and 0.05809 and 0.04157 | CypD prolyl-isomerase raw dose-response reading (Fig. 6c) (CypD; Dose 0.0925926 µM): 0.06297 and 0.05517 and 0.06275 | CypD prolyl-isomerase raw dose-response reading (Fig. 6c) (CypD; Dose 0.277778 µM): 0.05848 and 0.04977 and 0.05604 | CypD prolyl-isomerase raw dose-response reading (Fig. 6c) (CypD; Dose 0.833333 µM): 0.04291 and 0.04333 and 0.04298 | CypD prolyl-isomerase raw dose-response reading (Fig. 6c) (CypD; Dose 2.5 µM): 0.03189 and 0.02949 and 0.03114 | IC50 (CypD; IC50 CypD, Independent replicate 1, mean±SEM of 3 technical replicates): 0.7 ± 0.3 µM | IC50 (CypD; IC50 CypD, Independent replicate 2): 0.6 ± 0.3 µM | IC50 (CypD; IC50 CypD, Independent replicate 3): 0.41 ± 0.08 µM | IC50 (CypD; IC50 CypD, Independent replicate 4): ~0.7 µM | IC50 (CypD; Wild-Type Cyclophilin Prolyl Isomerase Inhibition IC50 Values, CypD, wild-type CypD): 0.6 µM | PPIL1 prolyl-isomerase raw dose-response reading (Fig. 6c) (PPIL1; Dose 0.00114312 µM): 0.05471 and 0.0599 and 0.05622 | PPIL1 prolyl-isomerase raw dose-response reading (Fig. 6c) (PPIL1; Dose 0.00342936 µM): 0.05168 and 0.05762 and 0.07551 | PPIL1 prolyl-isomerase raw dose-response reading (Fig. 6c) (PPIL1; Dose 0.00457247 µM): 0.05739 and 0.05515 and 0.06362 and 0.05346 and 0.05755 and 0.06002 and 0.05207 and 0.04334 | PPIL1 prolyl-isomerase raw dose-response reading (Fig. 6c) (PPIL1; Dose 0.0102881 µM): 0.04812 and 0.0449 and 0.05106 | PPIL1 prolyl-isomerase raw dose-response reading (Fig. 6c) (PPIL1; Dose 0.0308642 µM): 0.06685 and 0.05223 and 0.05525 | PPIL1 prolyl-isomerase raw dose-response reading (Fig. 6c) (PPIL1; Dose 0.0925926 µM): 0.05203 and 0.04221 and 0.05411 | PPIL1 prolyl-isomerase raw dose-response reading (Fig. 6c) (PPIL1; Dose 0.277778 µM): 0.04184 and 0.0372 and 0.04929 | PPIL1 prolyl-isomerase raw dose-response reading (Fig. 6c) (PPIL1; Dose 0.833333 µM): 0.02447 and 0.02506 and 0.03512 | PPIL1 prolyl-isomerase raw dose-response reading (Fig. 6c) (PPIL1; Dose 2.5 µM): 0.0232 and 0.01951 and 0.02784 | IC50 (PPIL1; Independent replicate 1, read-out: IC50 PPIL1): 0.4 ± 0.2 µM | IC50 (PPIL1; Independent replicate 2, read-out: IC50 PPIL1): 0.5 ± 0.2 µM | IC50 (PPIL1; Independent replicate 3, read-out: IC50 PPIL1): 0.25 ± 0.06 µM | IC50 (PPIL1; Independent replicate 4, read-out: IC50 PPIL1): 0.36 ± 0.08 µM | IC50 (PPIL1; prolyl-isomerase inhibition, 5 nM cyclophilin, read-out: IC50 PPIL1): 0.4 ± 0.1 µM | IC50 (PPIL1; wild-type PPIL1, read-out: Wild-Type Cyclophilin Prolyl Isomerase Inhibition IC50 Values, PPIL1): 0.4 µM | PPWD1 prolyl-isomerase raw dose-response reading (Fig. 6c) (PPWD1; Dose 0.00457247 µM): 0.0469 and 0.04534 and 0.05629 | PPWD1 prolyl-isomerase raw dose-response reading (Fig. 6c) (PPWD1; Dose 0.0137174 µM): 0.04565 and 0.04397 and 0.06065 | PPWD1 prolyl-isomerase raw dose-response reading (Fig. 6c) (PPWD1; Dose 0.0411523 µM): 0.05156 and 0.0487 and 0.05013 | PPWD1 prolyl-isomerase raw dose-response reading (Fig. 6c) (PPWD1; Dose 0.123457 µM): 0.04255 and 0.04648 and 0.048 | PPWD1 prolyl-isomerase raw dose-response reading (Fig. 6c) (PPWD1; Dose 0.37037 µM): 0.04707 and 0.04395 and 0.05999 | PPWD1 prolyl-isomerase raw dose-response reading (Fig. 6c) (PPWD1; Dose 1.11111 µM): 0.04661 and 0.0432 and 0.04546 | PPWD1 prolyl-isomerase raw dose-response reading (Fig. 6c) (PPWD1; Dose 3.33333 µM): 0.03786 and 0.03919 and 0.04546 | PPWD1 prolyl-isomerase raw dose-response reading (Fig. 6c) (PPWD1; Dose 10 µM): 0.02858 and 0.03234 and 0.0406 | PPWD1 prolyl-isomerase raw dose-response reading (Fig. 6c) (PPWD1; Dose 16.6667 µM): 0.02581 and 0.0305 and 0.02503 and 0.03058 and 0.01822 and 0.02069 and 0.01922 and 0.02384 | IC50 (PPWD1; Independent replicate 1, read-out: IC50 PPWD1): > 10 µM | IC50 (PPWD1; Independent replicate 2, read-out: IC50 PPWD1): 8 ± 4 µM | IC50 (PPWD1; Independent replicate 3, read-out: IC50 PPWD1): 6 ± 2 µM | IC50 (PPWD1; Independent replicate 4, read-out: IC50 PPWD1): 9 ± 3 µM | IC50 (PPWD1; prolyl-isomerase inhibition, 5 nM cyclophilin, read-out: IC50 PPWD1): 8 ± 2 µM | IC50 (PPWD1; wild-type PPWD1, read-out: Wild-Type Cyclophilin Prolyl Isomerase Inhibition IC50 Values, PPWD1): 8 µM
